The target of assay [1] is hTLR4/hMD-2/CD14-transfected HEK293 cells (Homo sapiens, UniProt O00206+Q9Y6Y9). Description: hTLR4/MD-2/CD14-transfected HEK293 (HEK-Blue) activation assay, NF-κB-dependent SEAP reporter. In kind it is cell-based. To be noted: for concentration at which TLR4 saturation plateau was reached: NF-κB/SEAP dose response. The source says:
The propensity of the α,α-GM-LAMs 1–3 to stimulate TLR4-mediated immune signaling was first assessed in the hTLR4/hMD-2/CD14 transfected human embryonic kidney (HEK) 293 cells (HEK-Blue). Since we were particularly interested in the molecular recognition mechanisms implicated in the binding of LPS by the MD-2·TLR4 complex wherein the Lipid A/Re-LPS portion of LPS is exclusively involved, we evaluated the activities of α,α-GM-LAMs 1–3 compared to E. coliRe-LPS (Figure 1A). It has been previously shown that the minimum structural requirement for the expression of the highest cytokine-inducing potency resides in Re-LPS, which entails two 3-deoxy-D-manno-oct-2-ulosonic acid (Kdo) residues in addition to Lipid A (Supporting Information, SI-Figure 1A).[54],[55] Moreover, the Re-LPS has a defined molecular weight (MW) similar to the MW range for Lipid A mimetics (1.8–2.2 kDa), in contrast to wild-type LPS having variable MW (10–15 kDa), so that the direct comparison of a dose-dependent response between compounds 1–3 and Re-LPS is more appropriate. The TLR4-stimulating activity of Lipid A mimetics 1–3 was examined over a wide concentration range by monitoring of the activation of the NF-κB regulated signal transduction pathway via measuring the induction of secreted embryonic alkaline phosphatase (SEAP) and compared to the responses elicited by E. coliRe-LPS and SM-MPLA.
Growth conditions and activation assay were set as recommended by InvivoGen. The cells were stimulated with the solutions of compounds 1–3 or LPS/Re-LPS in DMEM supplemented by 10% FCS at the indicated concentrations. […] The compounds were added in a total volume of 20 μL to 25000 HEK-Blue hTLR4 cells in 180 μL plates and were incubated for 20–24 h at 37 °C and 5% CO2. SEAP levels were determined by incubation of 20 μL of challenged cell supernatants with 180 μL of detection reagent (QUANTI-Blue), and the color development was measured at 650 nm using a spectrophotometer (SpectraMAX 190). Data were combined from n = 3 independent experiments; error bars indicate standard error of the mean.
Supplementary SI-Figure 1
E. coli Re-LPS E. coli O111:B4
SI-Figure 1. (A) Dose-dependent activation of TLR4 signaling in hTLR4/hMD-2/hCD14 transfected HEK293 cells (HEK-Blue) by E. coli Re-LPS compared to E. coli O111:B4 LPS. [nM] concentrations were calculated from [ng/ml] concentrations based on the following molecular weights (MW): MWE. coli Re-LPS 2339 Da, MWE. coli O111:B4 LPS 10000 Da. (B) Dose-dependent activation of TLR4 signaling in hTLR4/hMD-2/hCD14 transfected HEK293 cells (HEK-Blue) by Lipid A mimetics 1- 3 compared to E. coli Re-LPS and S. minnesota MPLA. Non-linear curve fit (variable slope) was calculated using GraphPad Prism and is shown for the mean curves. Dotted lines indicate corresponding Ec50 values. Statistical analysis was performed on non-linear curve fits on individual datasets using an un-paired two-tailed t-test (*** indicates a p value < 0.001, ns indicates non-significant change). Top, bottom, hill slope and Ec50 values of non-linear curve fit on individual datasets are shown. […]

Assay [2] concerns bone marrow-derived macrophages (BMDM). Description: TNF-α and IL-6 production in mouse bone marrow-derived macrophages (ELISA). The format is cell-based, C57BL/6J mice. Conditions: mBMDM. As for the experimental part:
The ability of Lipid A mimetics 1–3 to induce the production of TNF-α and IL-6 from bone marrow-derived macrophages (BMDM) in mice was subsequently examined and compared to that of synthetic E. coli Lipid A and E. coli MPLA, which are reliable positive controls due to their chemical purity and homogeneity (Figure 6). […] Likewise, 1 nM (1.8 ng/mL) of 1 or 2 triggered the release of a 3-fold higher amount of IL-6 (1500 pg/mL) compared to Lipid A (500 pg/mL).
Bone-marrow-derived microphages (BMDMs) were isolated and differentiated from the bone marrow of C57BL/6J mice. The bone marrow was flushed from femur and fibia with RPMI media. The erythrocytes were lysed with 0.88% ammonium chloride, 15 min at 37 °C. A single-cell suspension of the bone marrow cells was then seeded in cell culture flasks at a concentration of 1 × 10^6 cells/mL in RPMI supplemented with 20% FBS and 40 ng/mL recombinant M-CSF. The cell culture medium was changed on day 3. On day 6, the differentiated cells were trypsinized, counted, and seeded in 24-well plates at a concentration of 1 × 10^6 cells/mL in RPMI supplemented with 10% FBS. After 24 h, the cells were stimulated with Lipid A mimetics 1–3 and with synthetic E. coli Lipid A/MPLA (E. coli O111:B4 LPS was used as positive control) for 16 h. The nanomolar concentrations of 1–3 were calculated according to the MW of the synthetic compounds. The supernatants were then tested for cytokines using Ready-Set-Go ELISA kits (eBioscience).

[3] abbreviates: SEAP induction, 20–24 h, mean curve, nM calculated from ng/ml via MW, read-out: EC50 NF-κB activation.
The mark [4] stands for this setting: SEAP induction, mean curve, read-out: Ec50 (ng/ml) (converted).
Setting [5] is: dataset n1, read-out: Ec50 (ng/ml), non-linear curve fit on individual dataset (converted).
Setting [6] is: dataset n2, read-out: Ec50 (ng/ml), non-linear curve fit on individual dataset (converted).
The mark [7] stands for this setting: dataset n3, read-out: Ec50 (ng/ml), non-linear curve fit on individual dataset (converted).

Like-named read-outs stand apart in the source and are kept apart here.

hTLR4/hMD-2/CD14-transfected HEK293 cells, sequence (O00206 24-839): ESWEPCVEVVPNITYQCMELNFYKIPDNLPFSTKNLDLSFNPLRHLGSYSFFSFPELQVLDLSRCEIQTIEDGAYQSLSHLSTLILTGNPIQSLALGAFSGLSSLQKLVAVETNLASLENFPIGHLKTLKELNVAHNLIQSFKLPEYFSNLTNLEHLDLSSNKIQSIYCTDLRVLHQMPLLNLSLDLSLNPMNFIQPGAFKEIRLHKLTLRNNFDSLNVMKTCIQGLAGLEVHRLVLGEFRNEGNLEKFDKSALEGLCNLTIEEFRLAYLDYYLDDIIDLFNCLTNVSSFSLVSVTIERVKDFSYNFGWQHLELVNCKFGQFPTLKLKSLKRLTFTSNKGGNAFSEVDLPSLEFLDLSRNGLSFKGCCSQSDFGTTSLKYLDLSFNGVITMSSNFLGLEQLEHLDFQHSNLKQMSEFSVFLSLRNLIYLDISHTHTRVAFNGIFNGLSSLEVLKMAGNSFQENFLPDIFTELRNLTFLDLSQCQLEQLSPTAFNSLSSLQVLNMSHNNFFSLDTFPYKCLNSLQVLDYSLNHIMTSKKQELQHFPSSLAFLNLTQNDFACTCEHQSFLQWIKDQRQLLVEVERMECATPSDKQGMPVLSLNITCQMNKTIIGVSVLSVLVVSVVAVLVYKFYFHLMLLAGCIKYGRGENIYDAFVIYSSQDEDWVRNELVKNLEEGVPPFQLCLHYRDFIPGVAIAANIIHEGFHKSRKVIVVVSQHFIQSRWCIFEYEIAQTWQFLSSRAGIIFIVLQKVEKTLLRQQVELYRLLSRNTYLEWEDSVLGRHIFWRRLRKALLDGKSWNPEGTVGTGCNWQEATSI
hTLR4/hMD-2/CD14-transfected HEK293 cells, sequence (Q9Y6Y9 17-160 limits assumed): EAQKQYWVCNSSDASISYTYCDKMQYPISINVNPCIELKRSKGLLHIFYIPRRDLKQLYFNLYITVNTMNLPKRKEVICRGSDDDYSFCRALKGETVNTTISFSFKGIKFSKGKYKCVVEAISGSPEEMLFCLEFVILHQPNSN

Take `CCCCCCCCCCCCCC(=O)O[C@H](CCCCCCCCCCC)CC(=O)O[C@@H]1[C@@H](NC(=O)C[C@@H](CCCCCCCCCCC)OC(=O)CCCCCCCCCCC)[C@@H](O[C@H]2O[C@H](COP(=O)(O)O)[C@@H](OC(=O)C[C@@H](CCCCCCCCCCC)OC(=O)CCCCCCCCC)[C@H](O)[C@@H]2OC)O[C@H](CO)[C@H]1OP(=O)(O)O` [Compound 2, 4-O-[(R)-3-(Decanoyloxy)tetradecanoyl]-2-O-methyl-6-O-phosphoryl-α-mannopyranosyl-(1↔1)-2-deoxy-2-[(R)-3-(dodecanoyloxy)tetradecanoylamino]-4-O-phosphoryl-3-O-[(R)-3-(tetradecanoyloxy)tetradecanoyl]-α-D-glucopyranoside]: in assay [1] (2 compared with 1), the “fold increase of TLR-4 stimulating activity on shortening lipid side chain at Man C-4 by 2×CH2” value was 5 fold. Moreover, the “concentration at which TLR4 saturation plateau was reached” value in assay [1] was determined as 1 ng/mL. Besides, the EC50 in assay [1] (setting [3]) was 0.08 nM; in assay [1] (setting [4]) it was 0.0804 nM; in assay [1] (setting [5]), 0.0884 nM; in assay [1] (setting [6]), 0.0827 nM; in assay [1] (setting [7]), 0.0758 nM. Moreover, the “Bottom of non-linear curve fit” value in assay [1] (dataset n1) is 0.216; in assay [1] (dataset n2), 0.232; in assay [1] (dataset n3) it was 0.236. In addition, the “HillSlope of non-linear curve fit” value in assay [1] (dataset n1) is recorded as 1.193; in assay [1] (dataset n2), 1.250; in assay [1] (dataset n3), 1.246. Also, the figures for the “Top of non-linear curve fit” value in assay [1] (dataset n1), in assay [1] (dataset n2) and in assay [1] (dataset n3) were 1.330, 1.319 and 1.320, respectively. For the same molecule, the “fold higher amount of IL-6 compared to Lipid A” value in assay [2] (1 nM) amounted to 3 fold.

As for `CCCCCCCCCCCCCC(=O)O[C@H](CCCCCCCCCCC)CC(=O)O[C@@H]1[C@@H](NC(=O)C[C@@H](CCCCCCCCCCC)OC(=O)CCCCCCCCCCC)[C@@H](O[C@H]2O[C@H](CO)[C@@H](OC(=O)C[C@@H](CCCCCCCCCCC)OC(=O)CCCCCCCCCCC)[C@H](O)[C@@H]2OC)O[C@H](CO)[C@H]1OP(=O)(O)O` [Compound 3, 4-O-[(R)-3-(Dodecanoyloxy)tetradecanoyl]-2-O-methyl-α-D-mannopyranosyl-(1↔1)-2-deoxy-2-[(R)-3-(dodecanoyloxy)tetradecanoylamino]-4-O-phosphoryl-3-O-[(R)-3-(tetradecanoyloxy)tetradecanoyl]-α-D-glucopyranoside], the EC50 in assay [1] (setting [3]) was 31 nM; in assay [1] (setting [4]) it was 30.8 nM; in assay [1] (setting [5]) it was 30.5 nM; in assay [1] (setting [6]), 28.2 nM; in assay [1] (setting [7]), 34.1 nM. For the same molecule, the “activation profile compared to SM-MPLA” value in assay [1] (at concentrations above 10 ng/mL) was “more potent activation profile than SM-MPLA”. In addition, the “Bottom of non-linear curve fit” value in assay [1] (dataset n1) is recorded as 0.217; in assay [1] (dataset n2) it was 0.221; in assay [1] (dataset n3) it was 0.216. For the same molecule, the “HillSlope of non-linear curve fit” value in assay [1] (dataset n1) was found to be 1.120; in assay [1] (dataset n2), 1.170; in assay [1] (dataset n3) it was 1.145. Also, the “Top of non-linear curve fit” value in assay [1] (dataset n1) is recorded as 1.425; in assay [1] (dataset n2), 1.426; in assay [1] (dataset n3) it was 1.453. Besides, in assay [2] (1 nM), the “expression level of IL-6” value is “only marginal expression level”. In addition, the “IL-6 release compared to MPLA” value in assay [2] (concentrations above 1 nM) is “higher IL-6 release than MPLA”.

Consider `CCCCCCCCCCCCCC(=O)O[C@H](CCCCCCCCCCC)CC(=O)O[C@@H]1[C@@H](NC(=O)C[C@@H](CCCCCCCCCCC)OC(=O)CCCCCCCCCCC)[C@@H](O[C@H]2O[C@H](COP(=O)(O)O)[C@@H](OC(=O)C[C@@H](CCCCCCCCCCC)OC(=O)CCCCCCCCCCC)[C@H](O)[C@@H]2OC)O[C@H](CO)[C@H]1OP(=O)(O)O` [Compound 1, 4-O-[(R)-3-(Dodecanoyloxy)tetradecanoyl]-2-O-methyl-6-O-phosphoryl-α-D-mannopyranosyl-(1↔1)-2-deoxy-2-[(R)-3-(dodecanoyloxy)tetradecanoylamino]-4-O-phosphoryl-3-O-[(R)-3-(tetradecanoyloxy)tetradecanoyl]-α-D-glucopyranoside], for which, in assay [1], the “concentration at which TLR4 saturation plateau was reached” value is 5 ng/mL. Also, the EC50 in assay [1] (setting [3]) is 0.4 nM; in assay [1] (setting [4]), 0.424 nM; in assay [1] (setting [5]) it was 0.505 nM; in assay [1] (setting [6]) it was 0.352 nM; in assay [1] (setting [7]) it was 0.421 nM. Further, the “Bottom of non-linear curve fit” value turned out to be 0.212 in assay [1] (dataset n1), 0.225 in assay [1] (dataset n2) and 0.215 in assay [1] (dataset n3). Further, the results for the “HillSlope of non-linear curve fit” value in assay [1] (dataset n1), in assay [1] (dataset n2) and in assay [1] (dataset n3) were 1.282, 1.341 and 1.257, respectively. Besides, the “Top of non-linear curve fit” value amounted to 1.369 in assay [1] (dataset n1), 1.312 in assay [1] (dataset n2) and 1.348 in assay [1] (dataset n3). Further, the “fold higher amount of IL-6 compared to Lipid A” value in assay [2] (1 nM) was found to be 3 fold.

(Values after publication PMC4191062, “Development of αGlcN(1↔1)αMan-Based Lipid A Mimetics as a Novel Class of Potent Toll-like Receptor 4 Agonists” (Journal of Medicinal Chemistry, 2014).)
